Assays:
Assay type in all cases: in vivo, male Wistar rats
dopamine-β-hydroxylase [1] = assay: Determination of noradrenaline and dopamine levels of brain (dopamine-β-hydroxylase inhibiting effect)
Procedure: (§1) The dopamine-β-hydroxylase inhibiting effects of the new compounds according to the invention were examined by the following tests:
(§2) The tests were performed on male Wistar rats weighing 150 to 200 g. The dopamine-β-hydroxylase inhibiting effects of the compounds were evaluated by determining the change of noradrenaline, dopamine and adrenaline levels of the cerebrum, heart, spleen and adrenal gland. The serotonine and 5-hydroxy-indolylacetic acid levels of the cerebrum were also determined. The measurements were performed as follows:
(§3) The animals were decapitated, the cerebrum, heart, spleen and adrenal gland were removed quickly, and the organs were frozen by placing them onto a metal sheet cooled with dry ice. The frozen organs were stored for maximum one night at -20° C.
Determination of the noradrenaline, dopamine, serotonine and 5-hydroxy-indolylacetic acid contents of brain
The brains were homogenized in 10 parts by volume of 0.4 n perchloric acid. The homogenized mixture was stored at -20° C. overnight, thereafter it was thawed and centrifuged as described above. A sample of the homogenized mixture corresponding to 0.5 g of brain was removed, the pH of the sample was adjusted to 8.0±0.1 with 0.1 molar tris-buffer of the above composition, and the sample was processed as described above for the determination of the noradrenaline content of heart and spleen, with the difference that 1.5 ml of 0.05 n perchloric acid were applied as eluting agent. 0.5 ml of the eluate were applied to determine the noradrenaline and dopamine contents. The measurement was performed as described above, with the difference that samples of 0.5 ml were applied for the recording of the fluorescency of noradrenaline. The residua was placed for 50 minutes into a drying oven heated to 100° C., thereafter the sample was cooled with ice water, and the fluorescency of dopamine was recorded at wavelengths of 325 nm (excitation) and 380 nm (emission).
In a further test series the serotonine and 5-hydroxy-indolylacetic acid contents were also determined, beside the determination of the noradrenaline and dopamine content, from the same sample. In this instance the brains were homogenized in 10 ml of 75% ethanol, 0.2 ml of EDTA-Na2 and 5% of ascorbic acid were added to the homogenized mixtures, and the homogenized mixtures were maintained at -20° C. overnight. The mixtures were centrifuged as described above, and 5.0 ml samples of the supernatant were removed. The samples were diluted with equal volumes of distilled water, and poured onto ion exchange columns of 0.5×1.5 cm dimensions, filled with buffered Amberlite CG-30 (200 to 400 mesh). The columns were washed with 5 ml of distilled water followed by 1.0 ml of 0.2 n hydrochloric acid, and the first effluent and the aqueous wash were collected for the determination of 5-hydroxy-indolylacetic acid. Elution was continued with further 1.2 ml of 0.2 n hydrochloric acid in order to remove noradrenaline, dopamine and serotonine. Samples of 0.3 ml were used for the determinations.
Noradrenaline and dopamine were determined by the method of Shellenberger, modified as described above, whereas serotonine was determined by the method of Curzon et al. (Brit. J. Pharmacol. 39, 653/1970/). The basic method was modified as follows: A 0.5% solution of ortho-phthal(di)aldehyde in absolute ethanol was diluted with 10 n hydrochloric acid to 50-fold of its original volume, and 0.6 ml of the resulting 0.01% ortho-phthal(di)aldehyde solution were added immediately to 0.5 ml of the serotonine-containing sample. The sample was placed into a hot water bath for 10 minutes, thereafter cooled with tap water, and the fluorescency was recorded at wavelengths of 360 nm (excitation) and 490 nm (emission).
In the tests disulfiram, 2,2-dipyridyl, bis(1-methyl-4-homopiperazinyl-thriocaronyl)-disulfide, sodium diethyldithiocarbamate and N-phenyl-N'-(2-thiazolyl)-thiourea were applied as reference substances. […]

dopamine-β-hydroxylase [2] = assay: Determination of the noradrenaline content of heart; conditions: ± standard error
Procedure: as §1, §2, §3
(§4) Determination of the noradrenaline content of heart and spleen
(§5) The organs were weighed in frozen state and then homogenized in 5.0 ml of 0.4 n perchloric acid containing 0.05% of EDTA-Naa and 0.1% of Na2 S2 O5. The homogenized mixtures were centrifuged as described above for the treatment of adrenal gland, the supernatants were decanted, and the pH was adjusted to 8.0±0.1 with a 0.1 molar tris buffer containing 20 g/l of NaOH and 25 g/l of EDTA-Na2. 100 mg of prepared Al2 O3 (Anton et al.: J. Pharm. Ther. 138, 360/1962/) were added to the samples, and the mixtures were shaken mechanically for 20 minutes. Thereafter Al2 O3 was washed with 2×10 ml of distilled water, and noradrenaline was eluted with 1.0 ml of 0.05 n perchloric acid. 0.5 ml samples of the eluate were applied for the determination of noradrenaline. Noradrenaline was determined according to the method of Shellenberger et al. (Anal. Biochem. 39, 356/1971/), with the following modifications of the basic procedure: 0.5 ml of 0.1 molar Na-K-phosphate buffer, containing 9 g/l of EDTA-Na2, were added to 0.5 ml of the eluate, and the catecholamines (noradrenaline in the examination of heart and spleen and noradrenaline and dopamine in the examination of the cerebrum) were oxidized with 0.1 ml of a 0.1 n iodine solution in 5% potassium iodide. After exactly 2 minutes oxidation was stopped by adding 0.25 ml of a 2.5% sodium sulfite solution in 4.4 n aqueous sodium hydroxide to the mixture. 2 minutes after the introduction of the alkaline sulfite solution 0.2 ml of concentrated acetic acid were added to the samples, upon which the pH decreased to 4.4 to 4.5 Thereafter the samples were placed for 5 minutes into a drying oven heated to 100° C., and then the samples were cooled with ice water. The fluorescency of noradrenaline was measured with an OPTON spectrophotometer at wavelengths of 380 nm (excitation) and 490 nm (emission).
(§6) In the tests disulfiram, 2,2-dipyridyl, bis(1-methyl-4-homopiperazinyl-thriocaronyl)-disulfide, sodium diethyldithiocarbamate and N-phenyl-N'-(2-thiazolyl)-thiourea were applied as reference substances. The values indicated in Table 1 are the percentages in relation to the amine levels of the controls measured in the same tests (± standard error). The statistical calculations were performed on a TPA/i type computer, using Student's t test.

dopamine-β-hydroxylase [3] = assay: Determination of the noradrenaline content of spleen; conditions: ± standard error
Procedure: as §1, §2, §3, §4, §5, §6

dopamine-β-hydroxylase [4] = assay: Determination of the adrenaline content of adrenal gland; conditions: ± standard error
Procedure: as §1, §2, §3
Determination of the adrenaline content of adrenal gland
The adrenal glands were freed from fat and homogenized in 3.0 ml of ice-cold 0.4 n perchloric acid. The homogenized mixtures were centrifuged for 10 minutes at 0° C. with a speed of 3200 r.p.m. using a Janetzky K-70 type centrifuge. 0.05 ml samples were taken from the supernatant, and the adrenaline level was determined directly by the method of Laverty et al. (Anal. Biochem. 22, 269/1968/).
as §6

[5] = i.p., 100 mg/kg, 4 hours, ± standard error
[6] = i.p., 200 mg/kg, 4 hours, ± standard error
[7] = i.p., 200 mg/kg, 8 hours, ± standard error
[8] = i.p., 50 mg/kg, 4 hours, ± standard error
[9] = p.o., 500 mg/kg, 4 hours, ± standard error
[10] = p.o., 500 mg/kg, 8 hours, ± standard error
[11] = i.p., 400 mg/kg, time not given

Row | Structure (SMILES) | Brain DA (dopamine) level, percentages in relation to the controls (dopamine-β-hydroxylase [1]; [5]) [%] | Brain NA (noradrenaline) level, percentages in relation to the controls (dopamine-β-hydroxylase [1]; [5]) [%] | Brain DA (dopamine) level, percentages in relation to the controls (dopamine-β-hydroxylase [1]; [6]) [%] | Brain NA (noradrenaline) level, percentages in relation to the controls (dopamine-β-hydroxylase [1]; [6]) [%] | Brain DA (dopamine) level, percentages in relation to the controls (dopamine-β-hydroxylase [1]; [7]) [%] | Brain NA (noradrenaline) level, percentages in relation to the controls (dopamine-β-hydroxylase [1]; [7]) [%] | Heart NA (noradrenaline) level, percentages in relation to the controls (dopamine-β-hydroxylase [2]; i.p., 100 mg/kg, 4 hours) [%] | Heart NA (noradrenaline) level, percentages in relation to the controls (dopamine-β-hydroxylase [2]; i.p., 200 mg/kg, 4 hours) [%] | Heart NA (noradrenaline) level, percentages in relation to the controls (dopamine-β-hydroxylase [2]; i.p., 200 mg/kg, 8 hours) [%] | Spleen NA (noradrenaline) level, percentages in relation to the controls (dopamine-β-hydroxylase [3]; i.p., 200 mg/kg, 4 hours) [%] | Spleen NA (noradrenaline) level, percentages in relation to the controls (dopamine-β-hydroxylase [3]; i.p., 200 mg/kg, 8 hours) [%] | Adrenal gland AD (adrenaline) level, percentages in relation to the controls (dopamine-β-hydroxylase [4]; i.p., 100 mg/kg, 4 hours) [%] | Adrenal gland AD (adrenaline) level, percentages in relation to the controls (dopamine-β-hydroxylase [4]; i.p., 200 mg/kg, 4 hours) [%] | Adrenal gland AD (adrenaline) level, percentages in relation to the controls (dopamine-β-hydroxylase [4]; i.p., 200 mg/kg, 8 hours) [%] | Brain DA (dopamine) level, percentages in relation to the controls (dopamine-β-hydroxylase [1]; [9]) [%] | Brain NA (noradrenaline) level, percentages in relation to the controls (dopamine-β-hydroxylase [1]; [9]) [%] | Heart NA (noradrenaline) level, percentages in relation to the controls (dopamine-β-hydroxylase [2]; p.o., 500 mg/kg, 4 hours) [%] | Adrenal gland AD (adrenaline) level, percentages in relation to the controls (dopamine-β-hydroxylase [4]; p.o., 500 mg/kg, 4 hours) [%] | other results
1 | NC1=C(C(=S)SSC(=S)C2=C(N)CCC2)CCC1 [Compound M-1] | 121.2±5.8 | 69.5±12.1 | 124.5±1.9 | 56.7±5.9 | 109.0±5.9 | 56.5±6.3 | 86.5±3.7 | 82.5±5.4 | 83.2±9.5 | 92.6±12.4 | 91.2±12.6 | 87.2±6.7 | 70.9±5.8 | 60.2±3.2 | – | – | – | – | –
2 | CCCCNC1=C(C([O-])=S)CCC1.CCCCNC1=C(C([O-])=S)CCC1.[Zn+2] [Compound M-3, 2-(N-butyl)-amino-cyclopent-1-ene-thiocarboxylic acid-disulfide(zinc salt)] | 121.3±6.1 | 73.5±3.2 | – | – | – | – | 91.5±8.1 | – | – | – | – | 60.5±3.6 | – | – | 99.2±5.0 | 98.8±2.5 | 108.8±3.2 | 100.3±8.3 | Brain DA (dopamine) level, percentages in relation to the controls (dopamine-β-hydroxylase [1]; [8]): 112.2±12.0%; Brain NA (noradrenaline) level, percentages in relation to the controls (dopamine-β-hydroxylase [1]; [8]): 85.0±7.1%; Heart NA (noradrenaline) level, percentages in relation to the controls (dopamine-β-hydroxylase [2]; i.p., 50 mg/kg, 4 hours): 84.5±4.1%; Adrenal gland AD (adrenaline) level, percentages in relation to the controls (dopamine-β-hydroxylase [4]; i.p., 50 mg/kg, 4 hours): 66.3±5.5%
3 | COCCNC1=C(C(=S)SSC(=S)C2=C(NCCOC)CCC2)CCC1 [Compound M-4, 2-(N-methoxyethyl)-amino-cyclopent-1-ene-thiocarboxylic acid disulfide] | 131.5±8.9 | 41.9±2.7 | 134.6±4.0 | 39.6±4.9 | 120.6±5.8 | 28.5±1.4 | 91.8±5.9 | 91.7±9.2 | 75.7±3.7 | 69.9±16.9 | 61.9±9.9 | 77.5±6.3 | 96.3±6.7 | 97.0±7.9 | 114.5±2.4 | 73.6±2.8 | 86.3±10.1 | 96.3±6.0 | Brain DA (dopamine) level, percentages in relation to the controls (dopamine-β-hydroxylase [1]; [10]): 111.0±4.0%; Brain NA (noradrenaline) level, percentages in relation to the controls (dopamine-β-hydroxylase [1]; [10]): 51.2±2.8%; Heart NA (noradrenaline) level, percentages in relation to the controls (dopamine-β-hydroxylase [2]; p.o., 500 mg/kg, 8 hours): 74.0±8.4%; Spleen NA (noradrenaline) level, percentages in relation to the controls (dopamine-β-hydroxylase [3]; i.p., 100 mg/kg, 4 hours): 81.4±10.8%; Spleen NA (noradrenaline) level, percentages in relation to the controls (dopamine-β-hydroxylase [3]; p.o., 500 mg/kg, 4 hours): 103.1±18.9%; Spleen NA (noradrenaline) level, percentages in relation to the controls (dopamine-β-hydroxylase [3]; p.o., 500 mg/kg, 8 hours): 101.0±14.3%; Adrenal gland AD (adrenaline) level, percentages in relation to the controls (dopamine-β-hydroxylase [4]; p.o., 500 mg/kg, 8 hours): 88.1±5.1%
4 | S=C(SSC(=S)C1=C(NC2CCCCC2)CCC1)C1=C(NC2CCCCC2)CCC1 [Compound M-5, 2-(N-cyclohexyl)-amino-cyclopent-1-ene-thiocarboxylic acid disulfide] | – | – | 124.2±4.0 | 64.6±1.8 | 116.2±3.3 | 76.9±2.2 | – | 94.7±6.8 | 89.5±3.0 | 83.2±8.9 | 68.7±6.7 | – | 109.0±2.3 | 105.6±3.3 | – | – | – | – | –
5 | CCN(CC)C(=S)[S-].[Na+] [DDC-Na, sodium diethyldithiocarbamate, reference compound] | – | – | – | – | – | – | – | – | – | – | – | – | – | – | – | – | – | – | Brain DA (dopamine) level, percentages in relation to the controls (dopamine-β-hydroxylase [1]; [11]): 120%; Brain NA (noradrenaline) level, percentages in relation to the controls (dopamine-β-hydroxylase [1]; [11]): 64.1%

Reference: US4200650A, “2-Amino-cyclopent-1-ene-1-thiocarboxylic acid-disulfides to treat noradrenergic malfunctions” (Richter Gedeon Vegyeszeti Gyar Rt., priority 1976, dated 1980)
